Converted amounts (≈) assume the structure as drawn. Like-named read-outs stand apart in the source and are kept apart here. Where a SMILES comes first, the peptide text is derived from it. Where no end group is shown, it is not given here.
Legend:
[1] = Thioflavin T fluorescence, fibril/aggregate formation in MHB; assay type: physicochemical; conditions: ThT 20 µM, peptide 20 mg/mL in MHB, 37 °C, 24 h, reading every 30 s, ex 450 nm / em 490 nm
Description: In the second stage of our research, we decided to determine the propensity of the ten short amyloids (Table 1) to form fibrils under the conditions routinely used to evaluate AMP properties, i.e., upon their incubation in Mueller–Hinton Broth (MHB; for details, see Materials and Methods). These experiments could also allow us to speculate whether the amyloid properties of peptides go along with their antimicrobial activities. To detect the presence of protein fibrils, we used a benzothiazole dye (thioflavin T). Thioflavin T binds to β sheet-rich structures in amyloid aggregates and triggers a characteristic red shift, i.e., an increase in the wavelength in both excitation and emission maximum of the dye. […] The fluorescence spectra of the remaining peptides were indistinguishable from those of the medium itself (Figure S1).
The amyogenic abilities of the tested amyloids were determined in a kinetic reaction using the fluorescent dye thioflavin T (ThT), according to the modified method of Salinas et al.. […] ThT fluorescence intensity readings were performed in 96-well opaque microplates using a SpectraMax GeminiXPS spectrofluorometer at an excitation of λex 450 nm, an emission of λem 490 nm, and a cut-off point of λcut off 475 nm. Measurements were monitored for 24 h every 30 s. at 37 °C. The results were analysed in the SoftMax program. […]

[2] = tested on: Enterococcus faecium 2VRE; assay type: cell-based
Description: (§1) All bacterial strains were stored at −80 °C. The strains were revived using overnight cultures prepared in Tryptic Soy Broth (TSB, OXOID, Basingstoke, UK) and incubated under shaking conditions (MaxQTM6000 incubator shaker, Thermo Scientific, Waltham, MA, USA) at 125 rpm and 37 °C. Next, the purity of the strains was evaluated using enriched media (appropriate for the tested strains). For each experiment, a fresh 18–20 h culture was prepared on Tryptic Soy Agar (TSA, OXOID, Basingstoke, UK) for Gram-positive bacteria and MacConkey Agar (MC, OXOID, Basingstoke) for Gram-negative bacteria, and the samples were then transferred to fresh Mueller–Hinton Broth (MHB, OXOID, Basingstoke, UK), where the density was determined. Each culture was established at 10^8 CFU/mL and then diluted to a starting inoculum of 10^6 CFU/mL.
(§2) The microdilution method was used to measure the antimicrobial activity of amyloids. The test was performed according to the recommendations of EUCAST (ISO 20776–1:2019).
(§3) In 96-well microtiter plates, geometric dilutions of the tested amyloids were prepared from 128 to 0.25 µg/mL in 50 µL MHB. The stock solution (20 mg/mL) of the synthesized amyloids was prepared in MHB. The bacterial suspension prepared in MHB with a density of 10^6 CFU/mL was added to 50 µL of MHB containing the appropriate concentrations of amyloids, thus yielding a final bacterial concentration of 10^5 CFU/mL. Pure MHB was used as a negative control, while the control for bacterial growth was MHB medium in the presence of the strain used in the experiment. Antibiotic solutions were used as positive controls: colistin for Gram-negative bacteria and teicoplanin for Gram-positive bacteria.
(§4) Microtiter plates were incubated at 37 °C for 18 h for S. aureus, S. epidermidis, K. pneumoniae, E. coli, A. baumannii, and E. cloacae and 24 h for E. faecalis and E. faecium. Optimal density (OD600 nm) was measured in a plate reader (ASYS UVM340, BIOCHROM Ltd., Cambridge, UK). The absorbance results were converted to percentages (with respect to growth control) in the normalization process. The MIC (minimal inhibitory concentration) for each peptide was defined as the concentration at which the destruction of at least 90% of the initial inoculum was observed.
(§5) Each experiment was performed in three independent studies for each of the two isolates, and each replicate was performed in three separate wells. […] The MBC value was defined as the lowest concentration at which no growth of the tested strain was observed.
(§6) Linear regression analyses for viability of the HEK-293 cells subjected to ten amyloids, as well as the estimation of IC50 values, were determined in R Statistical Software using the model y = ax + 100% in the function lm from the stats package. The regression analyses for the viability of the bacterial cells and the estimation of MIC were conducted based on a linear mixed-effects model y = ax + 100% + (1|isolate/replicate) in lmer function from R package lme4 [73]. Isolates and replicates were assumed as random effects. The p-values of the determination coefficient and the slope were corrected using the Benjamini–Hochberg procedure for the obtained models.

[3] = tested on: Escherichia coli 1471; assay type: cell-based
Description: as §1, §2, §3, §4, §5, §6

[4] = tested on: Klebsiella pneumoniae N111; assay type: cell-based
Description: as §1, §2, §3, §4, §5, §6

[5] = tested on: Enterococcus faecalis 37VRE; assay type: cell-based
Description: as §1, §2, §3, §4, §5, §6

[6] = tested on: HEK-293 cells; assay type: cell-based, human; conditions: HEK-293, MTT, 24 h exposure, 128 to 0.25 µg/mL; from linear regression y = ax + 100%
Description: HEK-293 human embryonic kidney cells (ATCC, CRL-1573) were cultured in DMEM medium supplemented with 10% fetal bovine serum and 1% penicillin/streptomycin solution. The cells were cultured at 37 °C, 5% CO2, until the concentration was about 10^6 per mL. A total of 2 × 10^5 cells/mL were seeded in 96-well tissue microplates (2 × 10^4 cells per well) and were allowed to adhere overnight under the conditions described above. Cytotoxicity tests were carried out on the cells prepared in this way.
Cells were incubated with varying concentrations from 128 to 0.25 µg/mL of the tested amyloid for 24 h exposure. The MTT assay has been previously described. After incubating the cells with the tested amyloids, the MTT reagent (Ck = 0.5 mg/mL) was added to a well of a microtiter plate. After 2 h incubation (37 °C, 5% CO2), the MTT medium was removed and replaced with DMSO, to which was then added Sorensen’s buffer (0.1 M glycine, 0.1 M NaCl; pH 10.5). In the MTT test, the cell viability is directly proportional to the absorbance (570 nm). The control cells for background absorbance contained the growth medium, with MTT only. For MTT analysis, at least three experiments were performed using cells from consecutive passages. […]

Compound | MIC ([2]; 2VRE) | MIC [3] | MIC ([5]; 37VRE) | other results
C[C@@H](O)[C@H](NC(=O)[C@H](Cc1ccccc1)NC(=O)[C@H](CS)NC(=O)[C@H](Cc1c[nH]c2ccccc12)NC(=O)[C@H](CS)NC(=O)[C@@H](N)CCCCN)C(=O)O [Amyloid 5] (H-KCWCFT-OH; N-terminus and C-terminus assumed) | 230 µg/mL (≈ 292 µM) | 405 µg/mL (≈ 515 µM) | – | Formation of aggregates (fibrils) in the MHB medium [1]: formed aggregates in the MHB medium
AIIGLM [Amyloid 8] | 280 µg/mL | 372 µg/mL | 496 µg/mL | MIC ([4]; N111): 475 µg/mL
GGYLLG [Amyloid 9] | – | – | – | IC50 [6]: 171 µg/mL; MIC ([2]; E. faecium 2VRE, calculated from linear mixed-effects regression model, beyond tested range (max 128 µg/mL), MIC = at least 90% destruction): 204 µg/mL; MIC ([4]; K. pneumoniae N111, calculated from linear mixed-effects regression model, beyond tested range (max 128 µg/mL)): 406 µg/mL; MIC ([5]; E. faecalis 37VRE, calculated from linear mixed-effects regression model, beyond tested range (max 128 µg/mL)): 389 µg/mL
LIVAGK [Amyloid 3] | 301 µg/mL | – | – | –
LKVKVL [Amyloid 7] | 326 µg/mL | 345 µg/mL | 418 µg/mL | –
VCIVYK [Amyloid 2] | 177 µg/mL | – | 364 µg/mL | –
VGIVYK [Amyloid 10] | 295 µg/mL | – | 193 µg/mL | –
VKIVYK [Amyloid 6] | 179 µg/mL | 319 µg/mL | – | MIC ([4]; N111): 482 µg/mL
VQIVCK [Amyloid 1] | 196 µg/mL | – | 228 µg/mL | –

Reference: publication PMC9821130, “Testing Antimicrobial Properties of Selected Short Amyloids” (International Journal of Molecular Sciences, 2023)
